Measured values: article PMC5518475 (Bioorganic & medicinal chemistry letters, 2017)
One block for each compound: values may come before it.

Legend:
hM4 = target: T1, hM4 (Homo sapiens, UniProt P08173); format: cell-based; settings: for hM4 pEC50 (±SEM): hM4/Gqi5-CHO cells, EC20 fixed concentration of acetylcholine, mean of n=3
T1 sequence (P08173 1-479): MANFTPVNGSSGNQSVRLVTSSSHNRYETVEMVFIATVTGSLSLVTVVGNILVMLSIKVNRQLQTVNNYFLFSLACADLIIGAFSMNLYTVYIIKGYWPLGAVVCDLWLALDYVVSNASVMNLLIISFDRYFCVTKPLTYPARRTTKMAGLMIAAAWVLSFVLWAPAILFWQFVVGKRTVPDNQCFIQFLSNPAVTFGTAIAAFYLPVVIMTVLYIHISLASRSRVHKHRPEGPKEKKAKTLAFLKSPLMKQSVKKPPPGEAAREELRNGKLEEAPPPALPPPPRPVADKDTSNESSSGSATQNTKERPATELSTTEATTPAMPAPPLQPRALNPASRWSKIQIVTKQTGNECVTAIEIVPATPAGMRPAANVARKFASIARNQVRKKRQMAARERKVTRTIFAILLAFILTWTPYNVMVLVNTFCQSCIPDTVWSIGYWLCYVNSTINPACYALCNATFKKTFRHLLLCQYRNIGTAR

[1] = Predicted hepatic clearance from rat hepatic microsomal CLint; format: in vitro ADME; settings: based on hepatic microsomal CLint
[2] = Predicted hepatic clearance from human hepatic microsomal CLint; format: in vitro ADME; settings: based on hepatic microsomal CLint
human P-gp = human P-gp (Homo sapiens, UniProt P08183); assay: P-gp efflux in MDCK-MDR1 cells; format: in vitro ADME
Rat in vivo PK = settings: rat in vivo PK studies
CYP450 = CYP450 time-dependent inhibition; format: in vitro ADME
cynomolgus monkey M4 = cynomolgus monkey M4 (Macaca fascicularis, UniProt G7PQB4); assay: ACh CRC fold-shift experiments; format: cell-based; settings: operational model
human M4 = target: T2, human M4 (Homo sapiens, UniProt P08173); assay: ACh CRC fold-shift experiments; format: cell-based; settings: operational model
T2 sequence (P08173 1-479): T1 sequence (P08173 1-479)

Dog in vivo PK = settings: female, mongrel, plasma, iv
Predicted human PK = settings: based on moderate and small predicted CL and Vss

Sequence of human P-gp (P08183 whole entry): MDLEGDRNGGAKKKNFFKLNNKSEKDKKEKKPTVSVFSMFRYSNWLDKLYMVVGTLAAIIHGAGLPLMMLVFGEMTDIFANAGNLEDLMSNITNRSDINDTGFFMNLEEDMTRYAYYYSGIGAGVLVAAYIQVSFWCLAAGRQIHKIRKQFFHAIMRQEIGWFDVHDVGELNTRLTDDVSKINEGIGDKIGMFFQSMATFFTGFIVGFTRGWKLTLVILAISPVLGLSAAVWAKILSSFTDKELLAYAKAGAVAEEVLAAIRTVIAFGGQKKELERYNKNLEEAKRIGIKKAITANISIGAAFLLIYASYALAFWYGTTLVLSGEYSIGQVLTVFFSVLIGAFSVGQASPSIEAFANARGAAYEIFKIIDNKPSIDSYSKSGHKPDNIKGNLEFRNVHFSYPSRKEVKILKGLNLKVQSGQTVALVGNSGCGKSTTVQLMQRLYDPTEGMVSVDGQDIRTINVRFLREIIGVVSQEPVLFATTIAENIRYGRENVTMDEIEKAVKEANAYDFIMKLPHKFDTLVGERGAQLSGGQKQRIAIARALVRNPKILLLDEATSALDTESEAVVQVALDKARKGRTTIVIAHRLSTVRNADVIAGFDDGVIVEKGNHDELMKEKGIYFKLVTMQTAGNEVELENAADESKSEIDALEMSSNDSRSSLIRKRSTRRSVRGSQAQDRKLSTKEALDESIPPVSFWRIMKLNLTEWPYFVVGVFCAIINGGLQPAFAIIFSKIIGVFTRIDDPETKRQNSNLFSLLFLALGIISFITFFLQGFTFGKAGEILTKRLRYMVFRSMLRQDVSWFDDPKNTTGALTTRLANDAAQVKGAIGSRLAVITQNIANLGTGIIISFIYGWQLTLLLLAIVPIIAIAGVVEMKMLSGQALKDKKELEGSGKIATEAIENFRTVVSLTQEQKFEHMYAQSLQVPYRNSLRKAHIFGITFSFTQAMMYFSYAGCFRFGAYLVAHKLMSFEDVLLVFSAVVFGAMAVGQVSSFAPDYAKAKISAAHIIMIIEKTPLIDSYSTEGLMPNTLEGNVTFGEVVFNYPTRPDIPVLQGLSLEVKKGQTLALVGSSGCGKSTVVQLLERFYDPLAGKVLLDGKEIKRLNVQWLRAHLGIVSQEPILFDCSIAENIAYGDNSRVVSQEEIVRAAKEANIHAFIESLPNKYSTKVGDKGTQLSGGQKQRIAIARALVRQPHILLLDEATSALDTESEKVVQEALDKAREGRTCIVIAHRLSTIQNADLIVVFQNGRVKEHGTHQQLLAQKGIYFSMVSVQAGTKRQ

- hM4 pEC50 (±SEM) (hM4): 7.62±0.19
Compound: Cc1nnc2sc(C(=O)NC3CN(C(=O)OCc4ccccc4)C3)c(N)c2c1C [Compound 6a]

- hM4 pEC50 (±SEM) (hM4): 7.23±0.17
Compound: Cc1cccc(OC(=O)N2CC(NC(=O)c3sc4nnc(C)c(C)c4c3N)C2)c1 [Compound 6c]

- hM4 pEC50 (±SEM) (hM4): 6.22±0.25
Compound: Cc1nnc2sc(C(=O)NC3CN(C(=O)c4ccccc4)C3)c(N)c2c1C [Compound 6f]

- hM4 pEC50 (±SEM) (hM4): 6.45±0.19
Compound: Cc1nnc2sc(C(=O)NC3CN(c4nc5ccccc5o4)C3)c(N)c2c1C [Compound 16b]

- hM4 pEC50 (±SEM) (hM4): 7.04±0.16
- predicted CLhep [1]: 41 mL/min/kg
- predicted CLhep [2]: 12 mL/min/kg
Compound: Cc1nnc2sc(C(=O)NC3CN(c4nc5cccnc5s4)C3)c(N)c2c1C [Compound 16c]

- hM4 pEC50 (±SEM) (hM4): 6.99±0.18
Compound: Cc1nnc2sc(C(=O)NC3CN(c4ccccn4)C3)c(N)c2c1C [Compound 16d]

- human P-gp efflux substrate (human P-gp): substrates for human P-gp efflux
Compound: Cc1nnc2sc(C(=O)NC3CN(c4cccnc4)C3)c(N)c2c1C [Compound 16e]

- hM4 pEC50 (±SEM) (hM4): 7.48±0.17
Compound: Cc1nnc2sc(C(=O)NC3CN(c4ccncn4)C3)c(N)c2c1C [Compound 16h]

- hM4 pEC50 (±SEM) (hM4): 7.74±0.22
- human P-gp efflux substrate (human P-gp): substrates for human P-gp efflux
Compound: Cc1nnc2sc(C(=O)NC3CN(c4cccnc4F)C3)c(N)c2c1C [Compound 16i]

- predicted CLhep [1]: 18 mL/min/kg
- predicted CLhep [2]: 5.6 mL/min/kg
Compound: Cc1nnc2sc(C(=O)NC3CN(c4ccc(C(F)(F)F)nc4)C3)c(N)c2c1C [Compound 16j]

- hM4 pEC50 (±SEM) (hM4): 6.80±0.19
Compound: Cc1nnc2sc(C(=O)NC3CN(c4ccnc(Cl)c4)C3)c(N)c2c1C [Compound 16n]

Compound: COc1cc(N2CC(NC(=O)c3sc4nnc(C)c(C)c4c3N)C2)ccn1 [Compound 16o]
- rat in vivo PK finding on metabolism (Rat in vivo PK): evidence for extrahepatic non-CYP450 metabolism

Compound: Cc1nnc2sc(C(=O)NC3CN(c4ccncc4Cl)C3)c(N)c2c1C [Compound 16p]
- rat in vivo PK finding on metabolism (Rat in vivo PK): evidence for extrahepatic non-CYP450 metabolism

- human P-gp efflux substrate (human P-gp): substrates for human P-gp efflux
Compound: Cc1nnc2sc(C(=O)NC3CN(c4cc(F)nc(F)c4)C3)c(N)c2c1C [Compound 16q]

- weaker hM4 activity compared to that of 17j (hM4): ~ 10 fold
Compound: Cc1nnc2sc(C(=O)NC3CN(c4ccc(S(=O)(=O)C(F)(F)F)cc4)C3)c(N)c2c1C [Compound 17f]

- weaker hM4 activity compared to that of 17j (hM4): ~40 fold
- hM4 pEC50 (±SEM) (hM4): 6.63±0.29
Compound: Cc1nnc2sc(C(=O)NC3CN(c4ccc(S(=O)(=O)C(F)F)cc4)C3)c(N)c2c1C [Compound 17g]

- hM4 pEC50 (±SEM) (hM4): 7.49±0.12
Compound: Cc1nnc2sc(C(=O)NC3CN(c4ccc(F)cc4F)C3)c(N)c2c1C [Compound 17h]

Compound: Cc1nnc2sc(C(=O)NC3CN(c4cccc(F)c4F)C3)c(N)c2c1C [Compound 17j]
- time-dependent CYP450 inhibition (CYP450): no evidence for time-dependent inhibition
- cynomolgus monkey M4 αβ (cynomolgus monkey M4): 120
- human M4 αβ (human M4): 380
- Ames test result (Ames test): no evidence of mutagenesis
- clearance (Dog in vivo PK): 17 mL/min/kg
- predicted human t1/2 (Predicted human PK): 1 to 2 h
